In test [1] the test system is P815, murine mastocytoma cell. The test is described as follows: In vitro cytotoxicity (MTT) on P815. It is filed as cell-based. The note with it: Mus musculus. As to the method: (§1) This assay was performed to determine the effect of compounds of the present invention on cell cytotoxicity. Cells were incubated in presence or absence of compounds in their respective conditioned media. […] The supernatant was discarded and 100 μl of dimethylsulfoxide (DMSO) was added. Absorbance was read at […] with an ELISA Tecan SUNRISE™ plate reader. The control group consisted of cells without compounds and is referred to as 100% of viable cells. IC50 was determined using PRISM® software.
(§2) The predictive utility of cell-based cytotoxicity assays to assess the potential in vivo anticancer activity of compounds with selected cancer cell lines is well established in the art and the use of whole cells, instead of isolated protein receptors or enzymes, provides a more reliable determination of activity. See, for example, Paull et al. J. Natl. Cancer Inst. 81:1088-1092 (1989); Monks et al. J. Natl. Cancer Inst. 83:757-766 (1991); Bandes et al. J. Natl. Cancer Inst. 86:770-775 (1994); and Kamate et al. Intl. J. Cancer 100:571-579 (2002).

The test system of test [2] is CAKI-2, human kidney cell. The experiment in a line: In vitro cytotoxicity (MTT) on CAKI-2. It is filed as cell-based. As to the method:
as §1, §2

The subject of test [3] is PBML, Peripheral Blood Mononuclear Leukocytes. The experiment in a line: In vitro cytotoxicity (MTT) on PBML. It is filed as cell-based. The note with it: Leukocyte. As to the method:
as §1, §2

The test system of test [4] is B16F10, murine melanoma cell. The test is described as follows: In vitro cytotoxicity (MTT) on B16F10. It is filed as cell-based. The note with it: Mus musculus, B16-F10. Here is the method: as §1, §2
In another test the test system is Hep-G2, human liver cell. The experiment in a line: In vitro cytotoxicity (MTT) on Hep-G2. It is filed as cell-based. Here is the method:
as §1, §2

The subject of another test is B16F10 lung metastases. The format is in vivo. The note with it: for inhibition of the number of tumor nodules in lungs: FIG. 3, 50 mg/kg i.v. on day -3, -2, -1, 3, 5 and 7, p<0.001; for reduction of the number of tumor nodules: FIG. 4. As to the method:
Female 6-8-week old C57BL/6 mice were injected intravenously on day 0 with 1-2.5×10^5 B16F10 melanoma cells from ATCC (source of cell culture, Dr. I. J. Fidler). B16F10 melanoma cells are a highly metastatic cell line which preferentially forms nodules in the lungs. Cells were cultured in DMEM supplemented with 10% fetal bovine serum. […] Fourteen days after inoculation, mice were sacrificed and their lungs were removed, rinsed in PBS, and placed in Bouin's fixative. The number of metastatic nodules (black colonies) on the surface of the lungs were counted.

In the next test the test system is DA-3. The experiment in a line: In vitro cytotoxicity (MTT) on DA-3. The note with it: Mus musculus. The format is cell-based, BALB/c mice. As to the method:
as §1, §2
(§3) The syngeneic tumor DMBA3 (DA-3, breast carcinoma model) arose from a preneoplastic lesion treated with 7,12-dimethylbenzanthracene in female BALB/c mice. DA-3 cells were grown as monolayer cultures in plastic flasks in RPMI-1640 containing 0.1 mM nonessential amino acids, 0.1 μM sodium pyruvate, 2 mM L-glutamine. This was further supplemented with 50 μM 2-mercaptoethanol and 10% fetal bovine serum. The DA-3 tumors were serially passage in vivo by intradermal inoculation of 5×10^5 viable tumor cells to produce localized tumors in 6- to 8-week old BALB/c mice. The animals were then serially monitored by manual palpation for evidence of tumor. Mice were treated at day 11, 18 and 25 with cyclophosphamide (100 mg/kg) and at day 11, 12, 13, 15, 18, 20, 22, 25, 27 and 29 with compound 1, 2, 3 or 8 (50 mg/kg). Mice were sacrificed at day 43. Serial tumor volume was obtained by bi-dimensional diameter measurements with calipers, using the formula 0.4 (a×b^2) where “a” was the major tumor diameter and “b” the minor perpendicular diameter. […] The National Cancer Institute (USA) defines the product as effective if T/C is ≦40%.

Test [5] concerns PC-3, human prostate carcinoma cell. The test is described as follows: In vitro cytotoxicity (MTT) on PC-3. The format is cell-based. As to the method: as §1, §2
For test [6], the system named is NHDF, Normal Human Dermal Fibroblast. The experiment in a line: In vitro cytotoxicity (MTT) on NHDF. It is filed as cell-based. Here is the method:
as §1, §2

For another test, the system named is B16F10 primary tumors. The test is described as follows: Antitumor effects on a primary B16F10 melanoma tumor. It is filed as in vivo, C57BL/6 mice. The note with it: 50 mg/kg i.v. on day 14, 16 and 18. As to the method:
Female 6-8 week old C57BL/6 mice were injected intradermally on day 0 with 3.75×10^4 B16F10 melanoma cells from ATCC (source of cell culture, Dr. I. J. Fidler). On day 14, tumors reached […] and animals were randomized for treatments. Animals were then injected i.v. with saline (negative control) or compounds (50 mg/kg) on day 14, 16 and 18 or 10 mg/kg doxorubicin (Dox, positive control) on day 14. Mice were sacrificed on day 29. Body weight and tumor volume were recorded. Serial tumor volume was obtained by bi-dimensional diameter measurements with calipers, using the formula 0.4 (a×b^2) where “a” was the major tumor diameter and “b” the minor perpendicular diameter.
T/C is calculated as (Treated tumor volume/Control tumor volume)×100%. Compound 2 induced a weak reduction (T/C around 70%) of the tumor volume compared to the control.

The test system of another test is DA-3 breast tumors. The test is described as follows: Antitumor effects on a primary DA-3 breast tumor. It is filed as in vivo, BALB/c mice. As to the method: as §3
In other trials, mice were treated with one intratumoral injection of compound 2 or cyclophosphamide (three doses) or intratumoral injection of compound 2 in combination with cyclophosphamide.

[7] abbreviates: FIG. 8, combination of cyclophosphamide and intratumoral injection of compound 2.

Where two headings read alike, the source gives them in different places.

With `Oc1ccc(CCNc2nc(NCCNc3nc(NCCc4ccc(O)cc4)nc(Nc4ccccc4)n3)nc(Nc3ccccc3)n2)cc1` [Compound 1], the IC50 (commonly the midpoint of a concentration-inhibition curve) in [1] (24-hour cell culture) was 34 µM; in [1] (72-hour cell culture) it was 34 µM; in [2] (24-hour cell culture) it was above 40 µM; in [2] (72-hour cell culture), 15 µM; in test [3] (24-hour cell culture), 98 µM; in test [3] (72-hour cell culture) it was 45 µM. The half-inhibitory concentration (IC50) is 6 µM in test [4] (24-hour cell culture); 6 µM in test [4] (72-hour cell culture); 19 µM with Hep-G2, human liver cell (HepG2, 24-hour cell culture); 23 µM in the test on Hep-G2, human liver cell (HepG2, 72-hour cell culture); 4 µM in the test on DA-3 (24-hour cell culture); 4.2 µM in the test on DA-3 (72-hour cell culture). The IC50 in [5] (24-hour cell culture) was 8.3 µM; in test [5] (72-hour cell culture), 8.3 µM; in test [6] (24-hour cell culture), above 100 µM; in [6] (72-hour cell culture) it was 16 µM. In addition, the “inhibition of the number of tumor nodules in lungs” value (from here on “inhibition of the number … in lungs”) in the test with B16F10 lung metastases is reported as “significant inhibition”.
For the molecule `Nc1ccc(CCNc2nc(Nc3ccc(CCNc4nc(NCCO)nc(Nc5cccc(N)c5)n4)cc3)nc(Nc3cccc(N)c3)n2)cc1` [Compound 2], the IC50 in [1] (24-hour cell culture) was 66.5 µM; in test [1] (72-hour cell culture) it was 2.2 µM; in [2] (24-hour cell culture) it was above 40 µM; in test [2] (72-hour cell culture), above 40 µM; in test [3] (24-hour cell culture), above 100 µM; in [3] (72-hour cell culture), 10 µM. Also, the IC50 in [4] (24-hour cell culture) was 1 µM; in [4] (72-hour cell culture), 1 µM; in the test with Hep-G2, human liver cell (HepG2, 24-hour cell culture) it was above 40 µM; in the test on Hep-G2, human liver cell (HepG2, 72-hour cell culture) it was above 40 µM; with DA-3 (24-hour cell culture) it was 2 µM; with DA-3 (72-hour cell culture), 1.9 µM. The 50% inhibitory concentration (IC50) was 2.3 µM in test [5] (24-hour cell culture), 4 µM in test [5] (72-hour cell culture), above 100 µM in [6] (24-hour cell culture) and 16 µM in test [6] (72-hour cell culture). In addition, in the test with B16F10 lung metastases, the “inhibition of the number … in lungs” value is “significant inhibition”. Further, the “reduction of the number of tumor nodules” value in the test with B16F10 lung metastases (compound 2 in combination with doxorubicin (1 mg/kg)) is 95%; with B16F10 lung metastases (used alone, compound 50 mg/kg i.v., doxorubicin 1 mg/kg) it was 87%. In addition, the “T/C (Treated tumor volume/Control tumor volume)” value with B16F10 primary tumors (FIG. 1 trial) is recorded as “around 70%”. In the test on DA-3 breast tumors (setting [7]), the “T/C, inhibition of tumor volume” value was 10%. Also, in the test on DA-3 breast tumors (setting [7]), the “total tumor regressions at day 46” value was “four”. In the test on DA-3 breast tumors (FIG. 8, one intratumoral injection of compound 2 alone), the “total tumor regression at day 46” value was “one”.
Take `Nc1ccc(CCNc2nc(NCCCCO)nc(Nc3cccc(N)c3)n2)cc1` [Compound 8]: the half-inhibitory concentration (IC50) in test [1] (24-hour cell culture) was above 100 µM; in [1] (72-hour cell culture) it was 92 µM; in [3] (24-hour cell culture) it was above 100 µM; in test [3] (72-hour cell culture), above 100 µM; in test [4] (24-hour cell culture), 33 µM; in the test on DA-3 (24-hour cell culture), 85 µM. Moreover, the IC50 was 94 µM in [5] (24-hour cell culture), 100 µM in [5] (72-hour cell culture), above 100 µM in test [6] (24-hour cell culture) and above 100 µM in test [6] (72-hour cell culture). Further, the “inhibition of the number … in lungs” value with B16F10 lung metastases was “significant inhibition”. Moreover, in the test with B16F10 primary tumors (FIG. 2 trial), the “T/C (Treated tumor volume/Control tumor volume)” value is “around 70%”. Moreover, the “inhibition of the tumor volume” value with DA-3 breast tumors (FIG. 6, 50 mg/kg) is “All compounds except compound 8 induced a significant inhibition”.
